The target in the assay is wild-type human cardiac sodium channel, hNav1.5 (late sodium current) in HEK293 cells (Homo sapiens, UniProt Q14524). Briefly: Late INa screening assay (automated whole-cell patch clamp, PatchXpress). It is filed as cell-based. The following applies: late INa generated with 10 μM Tefluthrin (or 50 nM ATX II), HEK293 hNav1.5; for inhibition at 1 µM: HEK293, compound at 1 μM, read-out: Late INa 1 μM (percent block of late INa). Put shortly:
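hNav1.5-expressing HEK293 cells (no β subunits) were recorded by automated whole-cell patch clamp at 24–27 °C with CsF-based internal solution. Late current was induced by 10 μM tefluthrin (or 50 nM ATX II) and evoked by 250 ms steps from −120 to −20 mV at 0.1 Hz. Compounds, typically 10 μM, were applied in three additions over 7–8 min; mean current at 225–250 ms, normalised to 0Na baseline, gave percent block.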
Background: In patch-clamp work, channel activity is measured electrically.

wild-type human cardiac sodium channel, hNav1.5 (late sodium current) in HEK293 cells, sequence (Q14524 whole entry): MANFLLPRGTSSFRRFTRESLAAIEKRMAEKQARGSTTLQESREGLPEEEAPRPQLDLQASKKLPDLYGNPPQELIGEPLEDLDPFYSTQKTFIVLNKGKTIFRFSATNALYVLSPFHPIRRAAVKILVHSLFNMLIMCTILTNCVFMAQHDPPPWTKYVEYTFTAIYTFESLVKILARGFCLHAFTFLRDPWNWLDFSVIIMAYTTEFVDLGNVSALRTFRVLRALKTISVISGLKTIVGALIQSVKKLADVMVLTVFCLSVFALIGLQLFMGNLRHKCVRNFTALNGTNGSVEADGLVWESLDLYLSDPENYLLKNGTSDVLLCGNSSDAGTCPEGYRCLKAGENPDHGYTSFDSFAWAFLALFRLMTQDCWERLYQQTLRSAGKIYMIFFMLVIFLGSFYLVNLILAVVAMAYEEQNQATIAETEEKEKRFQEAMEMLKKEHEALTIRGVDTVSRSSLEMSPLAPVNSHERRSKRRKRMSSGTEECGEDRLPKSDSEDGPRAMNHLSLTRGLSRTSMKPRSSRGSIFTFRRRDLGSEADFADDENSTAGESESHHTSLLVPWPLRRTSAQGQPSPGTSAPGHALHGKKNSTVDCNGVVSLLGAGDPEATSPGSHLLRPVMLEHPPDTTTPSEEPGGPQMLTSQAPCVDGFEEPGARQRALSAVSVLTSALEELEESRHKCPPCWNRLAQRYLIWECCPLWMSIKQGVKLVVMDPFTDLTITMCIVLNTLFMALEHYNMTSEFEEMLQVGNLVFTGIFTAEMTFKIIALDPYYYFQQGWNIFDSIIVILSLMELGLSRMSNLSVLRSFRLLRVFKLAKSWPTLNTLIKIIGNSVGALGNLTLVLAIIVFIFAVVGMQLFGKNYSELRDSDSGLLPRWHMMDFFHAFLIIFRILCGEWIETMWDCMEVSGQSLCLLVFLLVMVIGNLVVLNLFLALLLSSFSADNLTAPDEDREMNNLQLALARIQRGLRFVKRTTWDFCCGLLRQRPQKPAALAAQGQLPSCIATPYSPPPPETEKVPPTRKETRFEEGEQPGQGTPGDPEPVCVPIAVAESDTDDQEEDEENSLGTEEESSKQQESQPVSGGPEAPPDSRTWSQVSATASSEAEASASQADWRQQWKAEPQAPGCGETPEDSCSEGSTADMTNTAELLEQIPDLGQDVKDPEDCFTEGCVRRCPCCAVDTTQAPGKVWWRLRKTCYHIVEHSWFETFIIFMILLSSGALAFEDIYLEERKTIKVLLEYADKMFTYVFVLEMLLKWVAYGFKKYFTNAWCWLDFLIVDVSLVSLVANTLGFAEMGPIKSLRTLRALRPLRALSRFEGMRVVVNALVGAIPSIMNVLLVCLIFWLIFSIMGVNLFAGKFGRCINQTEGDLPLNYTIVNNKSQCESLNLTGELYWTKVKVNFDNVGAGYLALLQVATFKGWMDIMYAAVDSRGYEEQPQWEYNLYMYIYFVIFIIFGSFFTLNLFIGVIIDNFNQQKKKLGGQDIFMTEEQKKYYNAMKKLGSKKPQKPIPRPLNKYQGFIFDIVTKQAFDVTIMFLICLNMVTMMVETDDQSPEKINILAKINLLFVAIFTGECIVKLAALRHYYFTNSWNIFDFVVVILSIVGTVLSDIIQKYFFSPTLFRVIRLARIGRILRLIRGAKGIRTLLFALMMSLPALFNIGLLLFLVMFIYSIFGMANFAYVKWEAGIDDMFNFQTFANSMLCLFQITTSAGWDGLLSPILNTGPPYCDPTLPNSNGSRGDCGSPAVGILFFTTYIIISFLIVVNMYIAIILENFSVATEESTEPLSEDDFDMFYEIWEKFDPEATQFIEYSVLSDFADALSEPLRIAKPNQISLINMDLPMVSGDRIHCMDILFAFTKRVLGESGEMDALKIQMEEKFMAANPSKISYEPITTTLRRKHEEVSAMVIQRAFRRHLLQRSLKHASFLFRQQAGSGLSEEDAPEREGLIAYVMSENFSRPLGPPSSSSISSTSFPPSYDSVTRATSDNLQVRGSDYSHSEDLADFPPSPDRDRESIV

Take `O=c1n(CCCOc2ccccc2C(F)(F)F)nc2ccc(-c3ccc(OC(F)(F)F)cc3)cn12` [compound 66, 6-(4-(trifluoromethoxy)phenyl)-2-(3-(2-(trifluoromethyl)phenoxy)propyl)-[1,2,4]triazolo[4,3-a]pyridin-3(2H)-one]: the inhibition at 1 µM was 14.7%.

As for `O=c1n(CCc2ccccn2)nc2ccc(-c3ccc(OC(F)(F)F)cc3)cn12` [compound 36, 2-(2-(pyridin-2-yl)ethyl)-6-(4-(trifluoromethoxy)phenyl)-[1,2,4]triazolo[4,3-a]pyridin-3(2H)-one], the inhibition at 1 µM was found to be 48.4%.

As to `Cc1nc(-c2cccc(Cn3nc4ccc(-c5ccc(OC(F)(F)F)cc5)cn4c3=O)c2)no1` [compound 8, 2-(3-(5-methyl-1,2,4-oxadiazol-3-yl)benzyl)-6-(4-(trifluoromethoxy)phenyl)-[1,2,4]triazolo[4,3-a]pyridin-3(2H)-one], the inhibition at 1 µM came out at 16.3%.

As to `Cc1cc(-c2ccc(OC(F)(F)F)cc2)cn2c(=O)[nH]nc12` [compound 196, 8-methyl-6-(4-(trifluoromethoxy)phenyl)-[1,2,4]triazolo[4,3-a]pyridin-3(2H)-one], the inhibition at 1 µM amounted to 38.3%.

On to `O=c1n(Cc2nc(C3CC3)co2)nc2ccc(-c3ccc(OC(F)(F)F)cc3)cn12` [compound 193, 2-((4-cyclopropyloxazol-2-yl)methyl)-6-(4-(trifluoromethoxy)phenyl)-[1,2,4]triazolo[4,3-a]pyridin-3(2H)-one], for which the inhibition at 1 µM worked out at 33.8%.

In the case of `Cc1noc(Cn2nc3ccc(-c4ccc(Oc5ccc(F)cc5)cc4)cn3c2=O)n1` [compound 93, 6-(4-(4-fluorophenoxy)phenyl)-2-((3-methyl-1,2,4-oxadiazol-5-yl)methyl)-[1,2,4]triazolo[4,3-a]pyridin-3(2H)-one], the inhibition at 1 µM was determined as 71.3%.

In the case of `O=C1c2ccccc2C(=O)N1Cc1nc(Cn2nc3ccc(-c4ccc(OC(F)(F)F)cc4)cn3c2=O)no1` [compound 136, 2-((3-((3-oxo-6-(4-(trifluoromethoxy)phenyl)-[1,2,4]triazolo[4,3-a]pyridin-2(3H)-yl)methyl)-1,2,4-oxadiazol-5-yl)methyl)isoindoline-1,3-dione], the inhibition at 1 µM is 25.2%.

Regarding `O=c1n(Cc2noc(C(F)F)n2)nc2ccc(-c3ccc(OC(F)(F)F)cc3)cn12` [compound 154, 2-((5-(difluoromethyl)-1,2,4-oxadiazol-3-yl)methyl)-6-(4-(trifluoromethoxy)phenyl)-[1,2,4]triazolo[4,3-a]pyridin-3(2H)-one], the inhibition at 1 µM came to 21%.

Consider `O=c1[nH]nc2ccc(-c3ccc(Oc4ccc(F)cc4)cc3)cn12` [compound 143, 6-(4-(4-fluorophenoxy)phenyl)-[1,2,4]triazolo[4,3-a]pyridin-3(2H)-one], for which the inhibition at 1 µM amounted to 56.6%.

For the compound `CCOC(COc1ccc2nc(C)sc2c1)Cn1nc2ccc(-c3ccc(OC(F)(F)F)cc3)cn2c1=O` (stereo not shown) [compound 124, 2-(2-ethoxy-3-(2-methylbenzo[d]thiazol-6-yloxy)propyl)-6-(4-(trifluoromethoxy)phenyl)-[1,2,4]triazolo[4,3-a]pyridin-3(2H)-one], the inhibition at 1 µM worked out at 31.2%.

For the compound `O=c1n(CCCc2ccc(F)cc2)nc2ccc(-c3ccc(OC(F)(F)F)cc3)cn12` [compound 76, 2-(3-(4-fluorophenyl)propyl)-6-(4-(trifluoromethoxy)phenyl)-[1,2,4]triazolo[4,3-a]pyridin-3(2H)-one], the inhibition at 1 µM was 19%.

`Cc1nc(Cn2nc3ccc(-c4ccc(Oc5ccc(Cl)cc5)cc4)cn3c2=O)no1` [compound 32, 6-(4-(4-chlorophenoxy)phenyl)-2-((5-methyl-1,2,4-oxadiazol-3-yl)methyl)-[1,2,4]triazolo[4,3-a]pyridin-3(2H)-one]: the inhibition at 1 µM came out at 68.5%.

With `O=c1n(CCCc2ccc(F)c(-c3cccnc3)c2)nc2ccc(-c3ccc(OC(F)(F)F)cc3)cn12` [compound 121, 2-(3-(4-fluoro-3-(pyridin-3-yl)phenyl)propyl)-6-(4-(trifluoromethoxy)phenyl)-[1,2,4]triazolo[4,3-a]pyridin-3(2H)-one], the inhibition at 1 µM came to 13.1%.

In the case of `CC(C)(C)c1cnc(Cn2nc3ccc(-c4ccc(OC(F)(F)F)cc4)cn3c2=O)o1` [compound 183, 2-((5-tert-butyloxazol-2-yl)methyl)-6-(4-(trifluoromethoxy)phenyl)-[1,2,4]triazolo[4,3-a]pyridin-3(2H)-one], the inhibition at 1 µM worked out at 14.6%.

Consider `COCc1nc(Cn2nc3ccc(-c4ccc(OC(F)(F)F)cc4)cn3c2=O)no1` [compound 128, 2-((5-(methoxymethyl)-1,2,4-oxadiazol-3-yl)methyl)-6-(4-(trifluoromethoxy)phenyl)-[1,2,4]triazolo[4,3-a]pyridin-3(2H)-one], for which the inhibition at 1 µM was 22%.

For `Cc1noc(Cn2nc3ccc(-c4ccc(C(F)(F)F)cc4)cn3c2=O)n1` [compound 137, 2-((3-methyl-1,2,4-oxadiazol-5-yl)methyl)-6-(4-(trifluoromethyl)phenyl)-[1,2,4]triazolo[4,3-a]pyridin-3(2H)-one], the inhibition at 1 µM came out at 28.8%.

Consider `O=c1[nH]nc2ccc(-c3ccc(OC(F)(F)F)cc3)cn12` [compound 200, 6-(4-(trifluoromethoxy)phenyl)-[1,2,4]triazolo[4,3-a]pyridin-3(2H)-one], for which the inhibition at 1 µM is 26.5%.

Regarding `Cc1noc(C(C)n2nc3ccc(-c4ccc(OC(F)(F)F)cc4)cn3c2=O)n1` (stereo not shown) [compound 147, 2-(1-(3-methyl-1,2,4-oxadiazol-5-yl)ethyl)-6-(4-(trifluoromethoxy)phenyl)-[1,2,4]triazolo[4,3-a]pyridin-3(2H)-one], the inhibition at 1 µM was 13.4%.

For `Cc1cnc(Cn2nc3ccc(-c4ccc(C(F)(F)F)cc4)cn3c2=O)o1` [compound 172, 2-((5-methyloxazol-2-yl)methyl)-6-(4-(trifluoromethyl)phenyl)-[1,2,4]triazolo[4,3-a]pyridin-3(2H)-one], the inhibition at 1 µM is 24.8%.

Regarding `O=c1n(Cc2ccc3nonc3c2)nc2ccc(-c3ccc(OC(F)(F)F)cc3)cn12` [compound 10, 2-(benzo[c][1,2,5]oxadiazol-5-ylmethyl)-6-(4-(trifluoromethoxy)phenyl)-[1,2,4]triazolo[4,3-a]pyridin-3(2H)-one], the inhibition at 1 µM was 16.9%.

Turning to `Cc1cccc(C)c1OCCn1nc2ccc(-c3ccc(OC(F)(F)F)cc3)cn2c1=O` [compound 44, 2-(2-(2,6-dimethylphenoxy)ethyl)-6-(4-(trifluoromethoxy)phenyl)-[1,2,4]triazolo[4,3-a]pyridin-3(2H)-one], the inhibition at 1 µM worked out at 43.1%.

As to `O=c1n(CCOc2ccccc2Cl)nc2ccc(-c3ccc(OC(F)(F)F)cc3)cn12` [compound 46, 2-(2-(2-chlorophenoxy)ethyl)-6-(4-(trifluoromethoxy)phenyl)-[1,2,4]triazolo[4,3-a]pyridin-3(2H)-one], the inhibition at 1 µM is 43.2%.

In the case of `O=c1n(Cc2nnc(C3CC3)s2)nc2ccc(-c3ccc(OC(F)(F)F)cc3)cn12` [compound 170, 2-((5-cyclopropyl-1,3,4-thiadiazol-2-yl)methyl)-6-(4-(trifluoromethoxy)phenyl)-[1,2,4]triazolo[4,3-a]pyridin-3(2H)-one], the inhibition at 1 µM was 18%.

`Cn1nc2ccc(-c3ccc(C(F)(F)F)cc3)cn2c1=O` [compound 185, 2-methyl-6-(4-(trifluoromethyl)phenyl)-[1,2,4]triazolo[4,3-a]pyridin-3(2H)-one]: the inhibition at 1 µM is 10.1%.

For the compound `O=c1n(CCOc2nccc(OCC(F)(F)F)n2)nc2ccc(-c3ccc(OC(F)(F)F)cc3)cn12` [compound 178, 2-(2-(4-(2,2,2-trifluoroethoxy)pyrimidin-2-yloxy)ethyl)-6-(4-(trifluoromethoxy)phenyl)-[1,2,4]triazolo[4,3-a]pyridin-3(2H)-one], the inhibition at 1 µM was 14.2%.

For `CCc1noc(Cn2nc3ccc(-c4ccc(OC(F)(F)F)cc4)cn3c2=O)n1` [compound 15, 2-((3-ethyl-1,2,4-oxadiazol-5-yl)methyl)-6-(4-(trifluoromethoxy)phenyl)-[1,2,4]triazolo[4,3-a]pyridin-3(2H)-one], the “Late INa 1 μM (percent block of late INa)” value (compound at 1 μM) came out at 13.5253%.

As to `O=c1n(Cc2coc(C3CC3)n2)nc2ccc(-c3ccc(OC(F)(F)F)cc3)cn12` [compound 181, 2-((2-cyclopropyloxazol-4-yl)methyl)-6-(4-(trifluoromethoxy)phenyl)-[1,2,4]triazolo[4,3-a]pyridin-3(2H)-one], the inhibition at 1 µM is 23.9%.

`COC(COc1ccccc1Cl)Cn1nc2ccc(-c3ccc(OC(F)(F)F)cc3)cn2c1=O` (stereo not shown) [compound 80, 2-(3-(2-chlorophenoxy)-2-methoxypropyl)-6-(4-(trifluoromethoxy)phenyl)-[1,2,4]triazolo[4,3-a]pyridin-3(2H)-one]: the inhibition at 1 µM was 33.4%.

Consider `O=C1C(Oc2ccccc2)CCN1CCn1nc2ccc(-c3ccc(OC(F)(F)F)cc3)cn2c1=O` (stereo not shown) [compound 112, 2-(2-(2-oxo-3-phenoxypyrrolidin-1-yl)ethyl)-6-(4-(trifluoromethoxy)phenyl)-[1,2,4]triazolo[4,3-a]pyridin-3(2H)-one], for which the inhibition at 1 µM was 11.1%.

Take `CCc1noc(C(C)n2nc3ccc(-c4ccc(OC(F)(F)F)cc4)cn3c2=O)n1` (stereo not shown) [compound 14, 2-(1-(3-ethyl-1,2,4-oxadiazol-5-yl)ethyl)-6-(4-(trifluoromethoxy)phenyl)-[1,2,4]triazolo[4,3-a]pyridin-3(2H)-one]: the inhibition at 1 µM is 12%.

In the case of `CC1(C)OC[C@H](c2nc(Cn3nc4ccc(-c5ccc(OC(F)(F)F)cc5)cn4c3=O)no2)O1` [compound 158, (R)-2-((5-(2,2-dimethyl-1,3-dioxolan-4-yl)-1,2,4-oxadiazol-3-yl)methyl)-6-(4-(trifluoromethoxy)phenyl)-[1,2,4]triazolo[4,3-a]pyridin-3(2H)-one], the inhibition at 1 µM came out at 25.3%.

(Values after patent publication US9079901B2, “Fused heterocyclic compounds as ion channel modulators” (Gilead Sciences, Inc., priority 2010, dated 2015).)
